# According to the supplement of paper PMC10307832:
# Legend:
# Assay in all cases: relative viability (nuclei count vs DMSO), 5 days (fraction); higher = more cells survive
# [1] = tested on: LOU-NH91
# Outline: (§1)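 Dosing by pin tool came one day after lung cancer cell lines were seeded in 1536-well plates, using either one drug or a fixed anchor-drug dose plus five library-drug doses (not always all listed) in √10 steps. After 5 days, nuclei were counted on 4× images. Relative viability is treated-well nuclei count divided by vehicle-well nuclei count, and values are medians of duplicate plates.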
# [2] = tested on: NCI-H460
# Outline: as §1
# [3] = tested on: LU99A
# Outline: as §1
# [4] = tested on: NCI-H2085
# Outline: as §1
# [5] = tested on: NCI-H1437
# Outline: as §1
# [6] = tested on: SK-LU-1
# Outline: as §1
# [7] = tested on: NCI-H838
# Outline: as §1
# [8] = tested on: NCI-H1650
# Outline: as §1
# [9] = tested on: HCC-366
# Outline: as §1
# [10] = tested on: NCI-H1975
# Outline: as §1
# [11] = tested on: BEN
# Outline: as §1
# [12] = tested on: NCI-H2342
# Outline: as §1
# [13] = tested on: NCI-H2023
# Outline: as §1
# [14] = tested on: NCI-H1734
# Outline: as §1
# [15] = tested on: NCI-H1563
# Outline: as §1
# [16] = tested on: NCI-H441
# Outline: as §1
# [17] = tested on: NCI-H1651
# Outline: as §1
# [18] = tested on: COR-L23
# Outline: as §1
# [19] = tested on: NCI-H1355
# Outline: as §1
# [20] = tested on: NCI-H1793
# Outline: as §1
# [21] = tested on: CAL-12T
# Outline: as §1
# [22] = tested on: NCI-H358
# Outline: as §1
structure (smiles),measurement,setting,value
Nc1ccn([C@@H]2O[C@H](CO)[C@@H](O)[C@@H]2O)c(=O)n1 [Cytarabine] + COc1cc2c(Oc3ccc(NC(=O)C4(C(=O)Nc5ccc(F)cc5)CC4)cc3F)ccnc2cc1OCCCN1CCOCC1 [Foretinib] (partner 0.25 µM),relative viability,[1]; first compound 0.005 µM,0.993
same,relative viability,[1]; first compound 0.01581 µM,0.926
same,relative viability,[1]; first compound 0.05 µM,0.869
same,relative viability,[1]; first compound 0.1581 µM,0.585
same,relative viability,[1]; first compound 0.5 µM,0.712
same,relative viability,[2]; first compound 0.005 µM,1.05
same,relative viability,[2]; first compound 0.01581 µM,0.837
same,relative viability,[2]; first compound 0.05 µM,0.492
same,relative viability,[2]; first compound 0.1581 µM,0.0445
same,relative viability,[2]; first compound 0.5 µM,0.0401
same,relative viability,[3]; first compound 0.005 µM,0.762
same,relative viability,[3]; first compound 0.01581 µM,0.773
same,relative viability,[3]; first compound 0.05 µM,0.809
same,relative viability,[3]; first compound 0.1581 µM,0.74
same,relative viability,[3]; first compound 0.5 µM,0.648
same,relative viability,[4]; first compound 0.005 µM,0.994
same,relative viability,[4]; first compound 0.01581 µM,0.847
same,relative viability,[4]; first compound 0.05 µM,0.75
same,relative viability,[4]; first compound 0.1581 µM,0.555
same,relative viability,[4]; first compound 0.5 µM,0.475
same,relative viability,[5]; first compound 0.005 µM,0.973
same,relative viability,[5]; first compound 0.01581 µM,0.922
same,relative viability,[5]; first compound 0.05 µM,0.626
same,relative viability,[5]; first compound 0.1581 µM,0.287
same,relative viability,[5]; first compound 0.5 µM,0.251
same,relative viability,[6]; first compound 0.005 µM,0.735
same,relative viability,[6]; first compound 0.01581 µM,0.759
same,relative viability,[6]; first compound 0.05 µM,0.538
same,relative viability,[6]; first compound 0.1581 µM,0.302
same,relative viability,[6]; first compound 0.5 µM,0.23
same,relative viability,[7]; first compound 0.005 µM,1.13
same,relative viability,[7]; first compound 0.01581 µM,1.08
same,relative viability,[7]; first compound 0.05 µM,0.939
same,relative viability,[7]; first compound 0.1581 µM,0.486
same,relative viability,[7]; first compound 0.5 µM,0.301
same,relative viability,[8]; first compound 0.005 µM,0.783
same,relative viability,[8]; first compound 0.01581 µM,0.973
same,relative viability,[8]; first compound 0.05 µM,0.73
same,relative viability,[8]; first compound 0.1581 µM,0.347
same,relative viability,[8]; first compound 0.5 µM,0.211
same,relative viability,[9]; first compound 0.005 µM,0.991
same,relative viability,[9]; first compound 0.01581 µM,0.831
same,relative viability,[9]; first compound 0.05 µM,0.584
same,relative viability,[9]; first compound 0.1581 µM,0.119
same,relative viability,[9]; first compound 0.5 µM,0.105
same,relative viability,[10]; first compound 0.005 µM,0.982
same,relative viability,[10]; first compound 0.01581 µM,1.03
same,relative viability,[10]; first compound 0.05 µM,0.889
same,relative viability,[10]; first compound 0.1581 µM,0.481
same,relative viability,[10]; first compound 0.5 µM,0.314
same,relative viability,[11]; first compound 0.005 µM,0.768
same,relative viability,[11]; first compound 0.01581 µM,0.515
same,relative viability,[11]; first compound 0.05 µM,0.301
same,relative viability,[11]; first compound 0.1581 µM,0.278
same,relative viability,[11]; first compound 0.5 µM,0.222
same,relative viability,[12]; first compound 0.005 µM,0.983
same,relative viability,[12]; first compound 0.01581 µM,0.887
same,relative viability,[12]; first compound 0.05 µM,0.798
same,relative viability,[12]; first compound 0.1581 µM,0.784
same,relative viability,[12]; first compound 0.5 µM,0.676
same,relative viability,[13]; first compound 0.005 µM,0.535
same,relative viability,[13]; first compound 0.01581 µM,0.502
same,relative viability,[13]; first compound 0.05 µM,0.158
same,relative viability,[13]; first compound 0.1581 µM,0.101
same,relative viability,[13]; first compound 0.5 µM,0.0682
same,relative viability,[14]; first compound 0.005 µM,0.553
same,relative viability,[14]; first compound 0.01581 µM,0.373
same,relative viability,[14]; first compound 0.05 µM,0.205
same,relative viability,[14]; first compound 0.1581 µM,0.164
same,relative viability,[14]; first compound 0.5 µM,0.124
same,relative viability,[15]; first compound 0.005 µM,0.869
same,relative viability,[15]; first compound 0.01581 µM,0.875
same,relative viability,[15]; first compound 0.05 µM,0.869
same,relative viability,[15]; first compound 0.1581 µM,0.846
same,relative viability,[15]; first compound 0.5 µM,0.73
same,relative viability,[16]; first compound 0.005 µM,0.841
same,relative viability,[16]; first compound 0.01581 µM,0.856
same,relative viability,[16]; first compound 0.05 µM,1.05
same,relative viability,[16]; first compound 0.1581 µM,0.661
same,relative viability,[16]; first compound 0.5 µM,0.4
same,relative viability,[17]; first compound 0.005 µM,0.769
same,relative viability,[17]; first compound 0.01581 µM,0.808
same,relative viability,[17]; first compound 0.05 µM,0.723
same,relative viability,[17]; first compound 0.1581 µM,0.583
same,relative viability,[17]; first compound 0.5 µM,0.372
same,relative viability,[18]; first compound 0.005 µM,0.958
same,relative viability,[18]; first compound 0.01581 µM,0.966
same,relative viability,[18]; first compound 0.05 µM,0.612
same,relative viability,[18]; first compound 0.1581 µM,0.206
same,relative viability,[18]; first compound 0.5 µM,0.137
same,relative viability,[19]; first compound 0.005 µM,0.976
same,relative viability,[19]; first compound 0.01581 µM,0.912
same,relative viability,[19]; first compound 0.05 µM,0.911
same,relative viability,[19]; first compound 0.1581 µM,0.501
same,relative viability,[19]; first compound 0.5 µM,0.444
same,relative viability,[20]; first compound 0.005 µM,0.812
same,relative viability,[20]; first compound 0.01581 µM,0.684
same,relative viability,[20]; first compound 0.05 µM,0.683
same,relative viability,[20]; first compound 0.1581 µM,0.545
same,relative viability,[20]; first compound 0.5 µM,0.494
same,relative viability,[21]; first compound 0.005 µM,1.11
same,relative viability,[21]; first compound 0.01581 µM,1.18
same,relative viability,[21]; first compound 0.05 µM,1.05
same,relative viability,[21]; first compound 0.1581 µM,0.619
same,relative viability,[21]; first compound 0.5 µM,0.358
same,relative viability,[22]; first compound 0.005 µM,0.612
same,relative viability,[22]; first compound 0.01581 µM,0.603
same,relative viability,[22]; first compound 0.05 µM,0.3
same,relative viability,[22]; first compound 0.1581 µM,0.131
same,relative viability,[22]; first compound 0.5 µM,0.126
